Laboratory results from patent publication US8664257B2, “Oxygen-substituted 3-heteroaroylamino-propionic acid derivatives and their use as pharmaceuticals” (Sanofi, priority 2010, dated 2014).
Where two headings read alike, the source gives them in different places. Values belong to the compound of their own block, whether it stands above or below them.

Target: T1, Recombinant human cathepsin A (Homo sapiens, UniProt P10619)
T1 construct: Recombinant human cathepsin A (residues 29-480, with a C-terminal 10-His tag); 10-His (C); purchased R&D Systems 1049-SE
T1 sequence (P10619 29-312 limits assumed): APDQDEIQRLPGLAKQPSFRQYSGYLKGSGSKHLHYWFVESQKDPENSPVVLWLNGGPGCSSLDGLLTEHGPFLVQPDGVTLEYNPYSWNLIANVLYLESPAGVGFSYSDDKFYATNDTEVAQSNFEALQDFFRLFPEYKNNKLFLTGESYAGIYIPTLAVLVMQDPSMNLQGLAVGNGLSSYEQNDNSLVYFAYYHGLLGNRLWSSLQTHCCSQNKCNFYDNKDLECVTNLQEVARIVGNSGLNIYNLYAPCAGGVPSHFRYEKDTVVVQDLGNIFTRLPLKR
T1 sequence (P10619 327-480 limits assumed): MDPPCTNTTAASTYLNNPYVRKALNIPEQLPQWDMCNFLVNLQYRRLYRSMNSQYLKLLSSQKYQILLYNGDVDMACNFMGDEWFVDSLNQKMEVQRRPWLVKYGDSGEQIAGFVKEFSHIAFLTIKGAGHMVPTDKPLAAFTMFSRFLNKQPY
Assay: Cathepsin A inhibitory activity
Type: biochemical
How it was run: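 Read-out was microfluidic separation of cleaved vs. uncleaved Bodipy FL-bradykinin (2 μM), giving turnover, % inhibition and IC50. Compound and 833 ng/ml enzyme met for 15 min RT in pH 5.5 MES/DTT before substrate (15 min RT). The 29-480 His-tagged human enzyme was first activated by cathepsin L, then E-64 (10 μM).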

[1] = pharmacological test "Cathepsin A inhibitory activity", IC50 given as class A/B/C, read-out: Activity (2): Cathepsin A inhibitory activity, IC50 class
[2] = read-out: Activity (2): Cathepsin A inhibitory activity, IC50 class
[3] = read-out: Activity (2): Cathepsin A inhibitory activity (IC50 class)
[4] = recombinant human cathepsin A 833 ng/ml, Bodipy FL-labeled bradykinin 2 μM, pH 5.5, read-out: CATH-A IC50
[5] = recombinant human cathepsin A, read-out: Activity (2): Cathepsin A inhibitory activity, IC50 class

IC50 [3]: < 100 nM
SMILES: Cc1ccccc1[C@H](CC(=O)O)NC(=O)c1cc(OC[C@@H](O)C2CC2)n(-c2ccccc2F)n1 (single isomer, unassigned) [Example 761]

IC50 [4]: 151 nM | IC50 [5]: 100 to 1000 nM
SMILES: Cc1ccc(F)cc1C(CC(=O)O)NC(=O)c1cc(O)n(-c2ccccc2Cl)n1 (centres unmarked) [Example 461, 3-{[1-(2-Chloro-phenyl)-5-hydroxy-1H-pyrazole-3-carbonyl]-amino}-3-(5-fluoro-2-methyl-phenyl)-propionic acid]

IC50 [3]: < 100 nM
SMILES: O=C(O)CC(NC(=O)c1cc(O)n(-c2ccccc2F)n1)c1ccc(-c2ccccc2Cl)cc1 (centres unmarked) [Example 542]

IC50 [4]: 884 nM | IC50 [5]: 100 to 1000 nM
SMILES: CN(C)c1ccc(C(CC(=O)O)NC(=O)c2cc(O)n(-c3ccc(F)cc3F)n2)c(Cl)c1 (centres unmarked) [Example 448, 3-(2-Chloro-4-dimethylamino-phenyl)-3-{[1-(2,4-difluoro-phenyl)-5-hydroxy-1H-pyrazole-3-carbonyl]-amino}-propionic acid]

IC50 [3]: < 100 nM
SMILES: CC(C)[C@@](C)(O)COc1cc(C(=O)N[C@@H](CC(=O)O)c2cccc(Cl)c2)nn1-c1ccccc1F [Example 767]

IC50 [5]: < 100 nM
SMILES: COc1cc(C(=O)N[C@@H](CC(=O)NC2CC2)c2ccccc2C)nn1-c1ccccc1F [Example 933, 1-(2-Fluoro-phenyl)-5-methoxy-1H-pyrazole-3-carboxylic acid ((S)-2-cyclopropylcarbamoyl-1-o-tolyl-ethyl)-amide]

IC50 [5]: 1000 to 30000 nM
SMILES: CN(C)c1ccc(C(CC(=O)O)NC(=O)c2cc(O)n(-c3ccccc3Cl)n2)c(Cl)c1 (centres unmarked) [Example 456]

IC50 [3]: 100 to 1000 nM
SMILES: COc1cc(C(=O)N[C@@H](CC(=O)O)c2ccccc2C)nn1C(C)(C)C [Example 611]

IC50 [3]: < 100 nM
SMILES: COc1cc(C(=O)NC(CC(=O)O)c2ccc(C)cc2C)nn1-c1ccccc1F (centres unmarked) [Example 666]

IC50 [3]: 100 to 1000 nM
SMILES: Cc1ccccc1[C@H](CC(=O)O)NC(=O)c1cc(OCc2ccccc2C(F)(F)F)n(-c2ccccc2F)n1 [Example 623]

IC50 [3]: < 100 nM
SMILES: COc1c(F)c(C(=O)N[C@@H](CC(=O)O)c2ccccc2C)nn1-c1ccccc1F [Example 595]

IC50 [5]: 100 to 1000 nM
SMILES: Cc1c(F)cccc1C(CC(=O)O)NC(=O)c1cc(O)n(-c2cccc(F)c2)n1 (centres unmarked) [Example 482]

IC50 [5]: 100 to 1000 nM
SMILES: Cc1ccc(F)cc1C(CC(=O)O)NC(=O)c1cc(O)n(-c2cccc(F)c2)n1 (centres unmarked) [Example 487]

IC50 [5]: 100 to 1000 nM
SMILES: O=C(O)C[C@H](NC(=O)c1cc(O)n(-c2cccc(F)c2)n1)c1cccc(Cl)c1 [Example 430]

IC50 [3]: < 100 nM
SMILES: Cc1ccccc1[C@H](CC(=O)O)NC(=O)c1cc(OCCc2ccccc2)n(-c2ccccc2F)n1 [Example 625]

IC50 [3]: 100 to 1000 nM | IC50 [4]: 352 nM
SMILES: COc1cc(-c2ccccc2)ccc1C(CC(=O)O)NC(=O)c1cc(O)n(-c2ccccc2F)n1 (centres unmarked) [Example 551, 3-{[1-(2-Fluoro-phenyl)-5-hydroxy-1H-pyrazole-3-carbonyl]-amino}-3-(3-methoxy-biphenyl-4-yl)-propionic acid]

The remaining lines, values behind:

SMILES: COc1ccccc1[C@@H](NC(=O)c1cc(O)n(-c2ccccc2F)n1)[C@@H](O)C(=O)O [Example 240]
IC50 [1]: 1000 to 30000 nM

SMILES: COc1ccc([C@H](CC(=O)O)NC(=O)c2cc(O)n(-c3cccc(F)c3)n2)cn1 [Example 335]
IC50 [2]: 100 to 1000 nM

SMILES: CC(C)(C)C(=O)COc1cc(C(=O)N[C@@H](CC(=O)O)c2cccc(Cl)c2Cl)nn1-c1ccccc1F [Example 839, (S)-3-(2,3-Dichloro-phenyl)-3-{[5-(3,3-dimethyl-2-oxo-butoxy)-1-(2-fluoro-phenyl)-1H-pyrazole-3-carbonyl]-amino}-propionic acid]
IC50 [2]: < 100 nM

SMILES: O=C(O)CC(NC(=O)c1cc(O)n(-c2ccccc2Cl)n1)c1ccccc1F (centres unmarked) [Example 208]
IC50 [1]: 100 to 1000 nM

SMILES: N#Cc1cccc([C@H](CC(=O)O)NC(=O)c2cc(O)n(-c3ccccc3F)n2)c1 [Example 230]
IC50 [1]: 100 to 1000 nM

SMILES: Cc1ccc(C)c(-n2nc(C(=O)NC(CC(=O)O)C3CC3)cc2O)c1 (centres unmarked) [Example 36]
IC50 [2]: 1000 to 30000 nM

SMILES: O=C(O)C[C@H](NC(=O)c1cc(O)n(-c2ccc(F)cc2)n1)c1ccc(F)cc1 [Example 346]
IC50 [2]: 1000 to 30000 nM

SMILES: CC(C)[C@](C)(O)COc1cc(C(=O)N[C@@H](CC(=O)O)c2c(F)cccc2F)nn1-c1ccccc1F [Example 817, (S)-3-(2,6-Difluoro-phenyl)-3-{[1-(2-fluoro-phenyl)-5-((S)-2-hydroxy-2,3-dimethyl-butoxy)-1H-pyrazole-3-carbonyl]-amino}-propionic acid]
IC50 [2]: < 100 nM

SMILES: O=C(O)CC(NC(=O)c1cc(O)n(-c2ccc(F)cc2F)n1)c1ccc(-c2ccccc2)cc1 (centres unmarked) [Example 197]
IC50 [1]: 100 to 1000 nM

SMILES: COc1ccccc1[C@H](CC(=O)O)NC(=O)c1cc(OC[C@@](C)(O)C(C)(C)C)n(-c2ccccc2F)n1 [Example 810, (S)-3-{[1-(2-Fluoro-phenyl)-5-((S)-2-hydroxy-2,3,3-trimethyl-butoxy)-1H-pyrazole-3-carbonyl]-amino}-3-(2-methoxy-phenyl)-propionic acid]
IC50 [2]: < 100 nM

SMILES: COc1cccc([C@H](CC(=O)O)NC(=O)c2cc(O)n(-c3ccccc3F)n2)c1 [Example 237]
IC50 [1]: 100 to 1000 nM

SMILES: O=C(O)CC(NC(=O)c1cc(O)n(-c2cccc(F)c2)n1)c1ccc(Cl)cc1F (centres unmarked) [Example 320]
IC50 [2]: 100 to 1000 nM

SMILES: O=C(O)CC(NC(=O)c1cc(O)n(-c2ccccc2Cl)n1)c1ccc(-c2ccc(F)cc2)cc1 (centres unmarked) [Example 115]
IC50 [2]: < 100 nM

SMILES: Cc1ccccc1[C@H](CC(=O)O)NC(=O)c1cc(OC[C@](C)(O)C(C)C)n(-c2ccccc2F)n1 [Example 857, (S)-3-{[1-(2-Fluoro-phenyl)-5-((R)-2-hydroxy-2,3-dimethyl-butoxy)-1H-pyrazole-3-carbonyl]-amino}-3-o-tolyl-propionic acid]
IC50 [2]: < 100 nM

SMILES: CC(C)(C)[C@@](C)(O)COc1cc(C(=O)N[C@@H](CC(=O)O)c2ccccc2F)nn1-c1ccccc1F [Example 854, (S)-3-(2-Fluoro-phenyl)-3-{[1-(2-fluoro-phenyl)-5-((R)-2-hydroxy-2,3,3-trimethyl-butoxy)-1H-pyrazole-3-carbonyl]-amino}-propionic acid]
IC50 [2]: 100 to 1000 nM

SMILES: COc1ccccc1[C@@H](NC(=O)c1cc(O)n(-c2ccc(Cl)cc2)n1)[C@@H](O)C(=O)O [Example 282]
IC50 [2]: 1000 to 30000 nM

SMILES: Cc1ccccc1[C@H](CC(=O)O)NC(=O)c1cc(O)n(-c2ccccc2)n1 [Example 82]
IC50 [2]: < 100 nM

SMILES: O=C(O)CC(NC(=O)c1cc(O)n(-c2ccc(F)cc2F)n1)c1ccc(-c2cccc(F)c2)cc1 (centres unmarked) [Example 384]
IC50 [2]: 100 to 1000 nM

SMILES: Cc1cccc([C@H](CC(=O)O)NC(=O)c2cc(OCC(=O)C(C)(C)C)n(-c3ccccc3F)n2)c1 [Example 805, (S)-3-{[5-(3,3-Dimethyl-2-oxo-butoxy)-1-(2-fluoro-phenyl)-1H-pyrazole-3-carbonyl]-amino}-3-m-tolyl-propionic acid]
IC50 [2]: < 100 nM

SMILES: Cc1cccc(C(CC(=O)O)NC(=O)c2cc(O)n(-c3ccccc3)n2)c1C (centres unmarked) [Example 377]
IC50 [2]: 100 to 1000 nM

SMILES: Cc1ccc(C(CC(=O)O)NC(=O)c2cc(O)n(-c3cccc(F)c3)n2)c(C)c1 (centres unmarked) [Example 325]
IC50 [2]: 100 to 1000 nM

SMILES: O=C(O)CC(NC(=O)c1cc(O)n(-c2ccc(F)cc2)n1)c1ccc(Cl)cc1F (centres unmarked) [Example 357]
IC50 [2]: 100 to 1000 nM

SMILES: CCCCC(CC(=O)O)NC(=O)c1cc(O)n(-c2ccccc2)n1 (centres unmarked) [Example 14]
IC50 [2]: 100 to 1000 nM

SMILES: O=C(O)C[C@H](NC(=O)c1cc(O)n(-c2ccc(Cl)cc2)n1)c1ccc(F)cc1 [Example 276]
IC50 [2]: 1000 to 30000 nM

SMILES: COc1ccc(C(CC(=O)O)NC(=O)c2cc(O)n(-c3ccc(F)cc3)n2)c(C)c1 (centres unmarked) [Example 337]
IC50 [2]: 100 to 1000 nM
